Results reported in patent publication US10214508B2, “Nitrogen-containing heterocyclic compound” (Takeda Pharmaceutical Company Limited, priority 2014, dated 2019).
Counter-ions that a name gives are not always drawn.

biological target: T1, human M1 receptor (hCHRM1) (Homo sapiens, UniProt P11229); experiment: Measurement of M1 receptor positive allosteric modulator (M1PAM) activity, calcium fluorescence (FLIPRtetra); type: cell-based; conditions: 10 μM test compound with acetylcholine at EC20 (final 0.6-0.8 nM); 100% = acetylcholine 1 μM, 0% = DMSO; CHO-K1 cells expressing hCHRM1
T1 construct: expressed in transfected cells
T1 sequence (P11229 1-460): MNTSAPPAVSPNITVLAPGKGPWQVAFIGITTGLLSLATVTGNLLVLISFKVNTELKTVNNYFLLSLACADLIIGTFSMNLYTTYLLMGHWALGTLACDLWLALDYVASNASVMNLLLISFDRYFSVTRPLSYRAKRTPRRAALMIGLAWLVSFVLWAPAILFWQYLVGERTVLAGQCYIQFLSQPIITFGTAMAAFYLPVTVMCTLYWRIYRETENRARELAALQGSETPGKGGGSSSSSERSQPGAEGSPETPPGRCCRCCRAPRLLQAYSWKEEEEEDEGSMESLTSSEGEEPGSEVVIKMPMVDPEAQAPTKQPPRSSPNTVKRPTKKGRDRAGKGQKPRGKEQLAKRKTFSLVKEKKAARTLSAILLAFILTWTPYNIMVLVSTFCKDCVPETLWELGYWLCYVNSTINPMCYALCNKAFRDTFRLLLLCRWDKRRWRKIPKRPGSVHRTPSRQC
Method: Measurement of M1 Receptor Positive Allosteric Modulator (M1PAM) Activity
The activity of a test compound in the presence of acetylcholine at EC20 concentration (final concentration 0.6-0.8 nM), which affords an action corresponding to about 20% of the maximum activity, was measured as PAM activity. The method is as follows. CHO-K1 cells stably expressing a human M1 receptor (hCHRM1) were plated on a 384-well black clear bottom plate (BD Falcon) at 5,000 cells/well, and cultured in an incubator at 37° C., 5% CO2 for 1 day. The medium in the cell plate was removed, and assay buffer A containing calcium indicator (Recording medium (DOJINDO LABORATORIES), 0.1% BSA (Wako Pure Chemical Industries, Ltd.), 2.5 μg/mL Fluo-4 AM (DOJINDO LABORATORIES), 0.08% Pluronic F127 (DOJINDO LABORATORIES), 1.25 mM probenecid (DOJINDO LABORATORIES)) was added at 30 μL/well. The cells were left standing in the incubator at 37° C., 5% CO2 for 30 min, and further left standing at room temperature for 30 min. A test compound prepared by diluting with assay buffer B (HBSS (Invitrogen), 20 mM HEPES (Invitrogen), 0.1% BSA) containing 2.4-3.2 nM acetylcholine was added at 10 μL/well, and the fluorescence was measured by FLIPRtetra (Molecular Devices) for 1 min every for 1 second. With the definition that the amount of change in the fluorescence on addition of acetylcholine (final concentration 1 μM) is 100% and that on addition of DMSO instead of a test compound is 0%, the activity (%) of the test compound was calculated, and the inflection point in the concentration-dependent curve of the test compound was calculated as IP values.

Compound | activity (%) at 10 μM [%]
Cc1cnc(C(=O)N[C@H]2CCC[C@@H]2O)cc1Cc1ccc(-c2cn(C)nc2C)cc1 [Example 14, 4-(4-(1,3-dimethyl-1H-pyrazol-4-yl)benzyl)-N-((1S,2S)-2-hydroxycyclopentyl)-5-methylpyridine-2-carboxamide Dihydrochloride] | 100
Cc1nc(C(=O)N[C@H]2CCCC[C@@H]2O)cc(Cc2ccc(C#N)nc2)c1Cl [Example 104, 5-chloro-4-((6-cyanopyridin-3-yl)methyl)-N-((1S,2S)-2-hydroxycyclohexyl)-6-methylpyridine-2-carboxamide] | 102
Cc1nc(C(=O)N[C@H]2CCCC[C@@H]2O)cc(Cc2ccc(-c3ccn(C)n3)cc2)c1C#N [Example 114, 5-cyano-N-((1S,2S)-2-hydroxycyclohexyl)-6-methyl-4-(4-(1-methyl-1H-pyrazol-3-yl)benzyl)pyridine-2-carboxamide] | 94
Cn1ccc(-c2ccc(Cc3cc(C(=O)N[C@H]4CCCC[C@@H]4O)ncc3C(F)F)cc2)n1 [Example 41, 5-(difluoromethyl)-N-((1S,2S)-2-hydroxycyclohexyl)-4-(4-(1-methyl-1H-pyrazol-3-yl)benzyl)pyridine-2-carboxamide] | 95
COC1CCCCC1NC(=O)c1cc(Cc2ccc(-c3ccn(C)n3)cc2)c(C)cn1 (stereo not drawn) [Example 18, N-(2-methoxycyclohexyl)-5-methyl-4-(4-(1-methyl-1H-pyrazol-3-yl)benzyl)pyridine-2-carboxamide] | 105
COc1nc(C(=O)N[C@H]2CCCC[C@@H]2O)cc(Cc2ccc(-n3cccn3)cc2)c1C [Example 91, N-((1S,2S)-2-hydroxycyclohexyl)-6-methoxy-5-methyl-4-(4-(1H-pyrazol-1-yl)benzyl)pyridine-2-carboxamide] | 98
Cc1cnc(C(=O)NC2CCOCC2)cc1Cc1ccc(-c2ccn(C)n2)cc1 [Example 27, 5-methyl-4-(4-(1-methyl-1H-pyrazol-3-yl)benzyl)-N-(tetrahydro-2H-pyran-4-yl)pyridine-2-carboxamide] | 88
Cc1nc(C(=O)N[C@H]2CCC[C@@H]2O)cc(Cc2ccc(-c3ccn(C)n3)cc2)c1Cl [Example 97, 5-chloro-N-((1S,2S)-2-hydroxycyclopentyl)-6-methyl-4-(4-(1-methyl-1H-pyrazol-3-yl)benzyl)pyridine-2-carboxamide] | 93
Cc1nc(C(=O)N[C@H]2COCC[C@@H]2O)cc(Cc2ccc(-c3ccn(C)n3)cc2)c1C [Example 82, 1,5-anhydro-2,4-dideoxy-2-(((5,6-dimethyl-4-(4-(1-methyl-1H-pyrazol-3-yl)benzyl)pyridin-2-yl)carbonyl)amino)-L-threo-pentitol] | 103
Cc1nc(C(=O)N[C@H]2CCCC[C@@H]2O)cc(Cc2ccc(-n3cccn3)cc2)c1C [Example 76, N-((1S,2S)-2-hydroxycyclohexyl)-5,6-dimethyl-4-(4-(1H-pyrazol-1-yl)benzyl)pyridine-2-carboxamide] | 92
Cc1cnc(C(=O)NC2CCOCC2O)cc1Cc1ccc(-c2ccn(C)n2)cc1 (stereo not drawn) [Example 21, 1,5-anhydro-2,3-dideoxy-3-(((5-methyl-4-(4-(1-methyl-1H-pyrazol-3-yl)benzyl)pyridin-2-yl)carbonyl)amino)pentitol] | 89
Cc1nc(C(=O)N[C@H]2CCC[C@@H]2O)cc(Cc2ccc(-n3cccn3)cc2)c1Cl [Example 100, 5-chloro-N-((1S,2S)-2-hydroxycyclopentyl)-6-methyl-4-(4-(1H-pyrazol-1-yl)benzyl)pyridine-2-carboxamide] | 97

Now from value to molecule:

activity (%) at 10 μM [%] | Compound
92 | O=C(N[C@H]1COCC[C@@H]1O)c1cc(Cc2ccc(-n3cccn3)cc2)c(Cl)cn1 [Example 8, 1,5-anhydro-2-(((5-chloro-4-(4-(1H-pyrazol-1-yl)benzyl)pyridin-2-yl)carbonyl)amino)-2,4-dideoxy-L-threo-pentitol Hydrochloride]
109 | Cc1nc(C(=O)N[C@H]2CCCC[C@@H]2O)cc(Cc2ccc(Cl)nc2)c1Cl [Example 103, 5-chloro-4-((6-chloropyridin-3-yl)methyl)-N-((1S,2S)-2-hydroxycyclohexyl)-6-methylpyridine-2-carboxamide]
102 | Cc1cnc(C(=O)N[C@H]2CCCC[C@@H]2O)cc1Cc1ccc(-n2cccn2)nc1 [Example 35, N-((1S,2S)-2-hydroxycyclohexyl)-5-methyl-4-((6-(1H-pyrazol-1-yl)pyridin-3-yl)methyl)pyridine-2-carboxamide]
106 | Cc1nc(C(=O)N[C@H]2CCCC[C@@H]2O)cc(Cc2ccc(-c3ccn(C)n3)cc2)c1Cl [Example 65, 5-chloro-N-((1S,2S)-2-hydroxycyclohexyl)-6-methyl-4-(4-(1-methyl-1H-pyrazol-3-yl)benzyl)pyridine-2-carboxamide]
101 | O=C(N[C@H]1CCCC[C@@H]1O)c1cc(Cc2ccc(-n3cccn3)cc2)c(OC(F)F)cn1 [Example 94, 5-(difluoromethoxy)-N-((1S,2S)-2-hydroxycyclohexyl)-4-(4-(1H-pyrazol-1-yl)benzyl)pyridine-2-carboxamide]
94 | Cc1nc(C(=O)N[C@H]2COCC[C@@H]2O)cc(Cc2ccc(-n3cccn3)cc2)c1C#N [Example 113, 1,5-anhydro-2-(((5-cyano-6-methyl-4-(4-(1H-pyrazol-1-yl)benzyl)pyridin-2-yl)carbonyl)amino)-2,4-dideoxy-L-threo-pentitol]
99 | O=C(N[C@H]1CCCC[C@@H]1O)c1cc(Cc2ccc(-n3cccn3)cc2F)c(Cl)cn1 [Example 54, 5-chloro-4-(2-fluoro-4-(1H-pyrazol-1-yl)benzyl)-N-((1S,2S)-2-hydroxycyclohexyl)pyridine-2-carboxamide]
75 | Cc1cnc(C(=O)NC2(CO)CCCC2)cc1Cc1ccc(-c2ccn(C)n2)cc1 [Example 20, N-(1-(hydroxymethyl)cyclopentyl)-5-methyl-4-(4-(1-methyl-1H-pyrazol-3-yl)benzyl)pyridine-2-carboxamide]
98 | Cc1cnc(C(=O)N[C@H]2CCC[C@@H]2O)cc1Cc1ccc(-c2ccn(C)n2)cc1F [Example 11, 4-(2-fluoro-4-(1-methyl-1H-pyrazol-3-yl)benzyl)-N-((1S,2S)-2-hydroxycyclopentyl)-5-methylpyridine-2-carboxamide]
97 | Cc1nc(C(=O)N[C@H]2CCCC[C@@H]2O)cc(Cc2ccc(-c3ccn(C)n3)cc2)c1C [Example 81, N-((1S,2S)-2-hydroxycyclohexyl)-5,6-dimethyl-4-(4-(1-methyl-1H-pyrazol-3-yl)benzyl)pyridine-2-carboxamide]
99 | O=C(N[C@H]1COCC[C@@H]1O)c1cc(Cc2ccc(-n3cccn3)cc2)c(OC(F)F)cn1 [Example 95, 1,5-anhydro-2,4-dideoxy-2-(((5-(difluoromethoxy)-4-(4-(1H-pyrazol-1-yl)benzyl)pyridin-2-yl)carbonyl)amino)-L-threo-pentitol]
94 | Cc1nc(C(=O)N[C@H]2CCCC[C@@H]2O)cc(Cc2ccc(Cl)nc2)c1C [Example 73, 4-((6-chloropyridin-3-yl)methyl)-N-((1S,2S)-2-hydroxycyclohexyl)-5,6-dimethylpyridine-2-carboxamide]
101 | COc1nc(C(=O)N[C@H]2COCC[C@@H]2O)cc(Cc2ccc(-c3ccn(C)n3)cc2)c1C [Example 89, 1,5-anhydro-2,4-dideoxy-2-(((6-methoxy-5-methyl-4-(4-(1-methyl-1H-pyrazol-3-yl)benzyl)pyridin-2-yl)carbonyl)amino)-L-threo-pentitol]
93 | Cc1cnc(C(=O)NC2CCC2)cc1Cc1ccc(-c2ccn(C)n2)cc1 [Example 29, N-cyclobutyl-5-methyl-4-(4-(1-methyl-1H-pyrazol-3-yl)benzyl)pyridine-2-carboxamide]
59 | Cc1cnc(C(=O)NC2COC2)cc1Cc1ccc(-c2ccn(C)n2)cc1 [Example 26, 5-methyl-4-(4-(1-methyl-1H-pyrazol-3-yl)benzyl)-N-(oxetan-3-yl)pyridine-2-carboxamide]
